Assay: xn = mol fraction of the nth substance listed, in the solute-free solvent

CC(=O)OC(c1ccccc1)C(Cl)(Cl)Cl (centres undefined) + CC(C)O + O
solubility (g/100 g solution)
Details | 288.15 K | 293.15 K | 298.15 K | 303.15 K | 308.15 K | 313.15 K | 318.15 K | 323.15 K | 328.15 K
x2 = 0.3 | 0.121 | 0.305 | 0.695 | 1.28 | 1.93 | 2.84 | 3.53 | 4.2 | 4.91
x2 = 0.4 | 0.68 | 1.07 | 1.66 | 2.53 | 3.38 | 4.59 | 5.99 | 7.89 | 10.2
x2 = 0.5 | 1.44 | 1.92 | 2.68 | 3.57 | 4.9 | 6.25 | 8.62 | 11.3 | 15.3
x2 = 0.6 | 2.16 | 2.57 | 3.54 | 4.68 | 6.23 | 7.88 | 10.9 | 14.7 | 19.1
x2 = 0.7 | 2.5 | 3.03 | 4.15 | 5.52 | 7.14 | 9.44 | 12.2 | 16.8 | 21.4
x2 = 0.8 | 2.69 | 3.35 | 4.57 | 6.3 | 7.95 | 10.4 | 13.8 | 18.5 | 23.5
x2 = 0.9 | 2.86 | 3.67 | 5.1 | 6.71 | 8.39 | 10.9 | 14.4 | 19.4 | 25.3

Nc1cncc(Cl)n1 + CC(O)CO + O
solubility (g/100 g solution)
Details | 278.15 K | 283.15 K | 288.15 K | 293.15 K | 298.15 K | 303.15 K | 308.15 K | 313.15 K | 318.15 K | 323.15 K
x2 = 0.02564 | – | – | – | – | – | – | – | – | – | 0.0333
x2 = 0.0559 | – | – | – | – | – | – | – | – | – | 0.0456
x2 = 0.09214 | 0.064 | 0.0784 | 0.093 | 0.112 | 0.133 | 0.158 | 0.185 | 0.216 | 0.25 | 0.292
x2 = 0.1364 | 0.0887 | 0.109 | 0.129 | 0.156 | 0.184 | 0.218 | 0.255 | 0.297 | 0.343 | 0.401
x2 = 0.1915 | 0.112 | 0.137 | 0.166 | 0.2 | 0.239 | 0.281 | 0.33 | 0.384 | 0.445 | 0.521
x2 = 0.2621 | 0.135 | 0.168 | 0.206 | 0.251 | 0.298 | 0.351 | 0.413 | 0.48 | 0.555 | 0.649
x2 = 0.3559 | 0.156 | 0.196 | 0.237 | 0.29 | 0.345 | 0.406 | 0.479 | 0.557 | 0.644 | 0.757
x2 = 0.4865 | 0.159 | 0.205 | 0.253 | 0.308 | 0.371 | 0.435 | 0.512 | 0.599 | 0.694 | 0.815
x2 = 0.6806 | 0.159 | 0.201 | 0.247 | 0.307 | 0.365 | 0.431 | 0.508 | 0.593 | 0.688 | 0.814

O=C1CCc2ccc(OCCCCN3CCN(c4cccc(Cl)c4Cl)CC3)cc2N1 + CCC(C)=O + CC(C)=O
solubility (g/100 g solution)
Details | 278.15 K | 283.15 K | 288.15 K | 293.15 K | 298.15 K | 303.15 K | 308.15 K | 313.15 K | 318.15 K
x2 = 0.1 | 0.779 | 0.97 | 1.13 | 1.44 | 1.75 | 2.16 | 2.61 | 3.34 | 4.18
x2 = 0.2 | 0.882 | 1.07 | 1.25 | 1.61 | 1.94 | 2.32 | 2.83 | 3.58 | 4.41
x2 = 0.3 | 0.948 | 1.16 | 1.34 | 1.71 | 2.09 | 2.46 | 3.02 | 3.74 | 4.62
x2 = 0.4 | 1.01 | 1.22 | 1.43 | 1.78 | 2.19 | 2.59 | 3.21 | 3.88 | 4.8
x2 = 0.5 | 1.05 | 1.28 | 1.5 | 1.86 | 2.28 | 2.71 | 3.34 | 4.01 | 4.96
x2 = 0.6 | 1.09 | 1.34 | 1.57 | 1.93 | 2.36 | 2.82 | 3.46 | 4.13 | 5.1
x2 = 0.7 | 1.12 | 1.38 | 1.63 | 1.99 | 2.43 | 2.91 | 3.54 | 4.23 | 5.21
x2 = 0.8 | 1.15 | 1.43 | 1.68 | 2.06 | 2.49 | 2.99 | 3.62 | 4.3 | 5.27
x2 = 0.9 | 1.17 | 1.47 | 1.72 | 2.12 | 2.54 | 3.06 | 3.68 | 4.35 | 5.31

COC1=CC(=O)CC(C)C12Oc1c(Cl)c(OC)cc(OC)c1C2=O (centres undefined) + CCC(C)=O + CC(C)O
solubility (g/100 g solution)
Details | 283.15 K | 288.15 K | 293.15 K | 298.15 K | 303.15 K | 308.15 K | 313.15 K | 318.15 K | 323.15 K
x2 = 0.1 | 0.162 | 0.217 | 0.254 | 0.338 | 0.391 | 0.463 | 0.543 | 0.669 | 0.836
x2 = 0.2 | 0.326 | 0.374 | 0.44 | 0.557 | 0.606 | 0.77 | 0.892 | 1.05 | 1.26
x2 = 0.3 | 0.497 | 0.571 | 0.668 | 0.821 | 0.894 | 1.11 | 1.28 | 1.52 | 1.79
x2 = 0.4 | 0.684 | 0.779 | 0.9 | 1.11 | 1.23 | 1.44 | 1.68 | 1.93 | 2.25
x2 = 0.5 | 0.96 | 1.07 | 1.21 | 1.4 | 1.59 | 1.85 | 2.11 | 2.4 | 2.79
x2 = 0.6 | 1.22 | 1.37 | 1.51 | 1.75 | 1.98 | 2.26 | 2.58 | 2.92 | 3.41
x2 = 0.7 | 1.5 | 1.66 | 1.8 | 2.07 | 2.31 | 2.62 | 2.97 | 3.34 | 3.79
x2 = 0.8 | 1.7 | 1.87 | 2.04 | 2.37 | 2.6 | 2.94 | 3.29 | 3.75 | 4.16
x2 = 0.9 | 1.84 | 2.02 | 2.22 | 2.58 | 2.81 | 3.18 | 3.52 | 4 | 4.41

O=C1CCc2ccc(OCCCCN3CCN(c4cccc(Cl)c4Cl)CC3)cc2N1 + CCC(C)=O + CCCO
solubility (g/100 g solution)
Details | 278.15 K | 283.15 K | 288.15 K | 293.15 K | 298.15 K | 303.15 K | 308.15 K | 313.15 K | 318.15 K
x2 = 0.1 | 0.703 | 0.851 | 1.04 | 1.22 | 1.46 | 1.7 | 2.04 | 2.61 | 3.38
x2 = 0.2 | 1.03 | 1.2 | 1.44 | 1.69 | 1.98 | 2.38 | 2.87 | 3.56 | 4.45
x2 = 0.3 | 1.32 | 1.52 | 1.88 | 2.29 | 2.68 | 3.15 | 3.67 | 4.46 | 5.5
x2 = 0.4 | 1.6 | 1.86 | 2.24 | 2.74 | 3.21 | 3.77 | 4.34 | 5.18 | 6.36
x2 = 0.5 | 1.86 | 2.05 | 2.48 | 3.03 | 3.59 | 4.13 | 4.81 | 5.82 | 7.2
x2 = 0.6 | 2.04 | 2.25 | 2.67 | 3.18 | 3.75 | 4.3 | 5.16 | 6.36 | 7.89
x2 = 0.7 | 1.98 | 2.21 | 2.62 | 3.12 | 3.68 | 4.22 | 5.04 | 6.23 | 7.71
x2 = 0.8 | 1.84 | 2.09 | 2.47 | 2.96 | 3.48 | 4.03 | 4.72 | 5.83 | 7.15
x2 = 0.9 | 1.68 | 1.94 | 2.27 | 2.69 | 3.12 | 3.61 | 4.21 | 5.13 | 6.36

O=C1CCc2ccc(OCCCCN3CCN(c4cccc(Cl)c4Cl)CC3)cc2N1 + CCC(C)=O + CCOC(C)=O
solubility (g/100 g solution)
Details | 278.15 K | 283.15 K | 288.15 K | 293.15 K | 298.15 K | 303.15 K | 308.15 K | 313.15 K | 318.15 K
x2 = 0.1 | 0.601 | 0.745 | 0.882 | 1.04 | 1.24 | 1.57 | 1.88 | 2.26 | 2.76
x2 = 0.2 | 0.641 | 0.794 | 0.953 | 1.12 | 1.37 | 1.74 | 2.08 | 2.45 | 2.98
x2 = 0.3 | 0.681 | 0.845 | 1.04 | 1.22 | 1.48 | 1.91 | 2.28 | 2.68 | 3.24
x2 = 0.4 | 0.73 | 0.907 | 1.14 | 1.32 | 1.61 | 2.06 | 2.48 | 2.92 | 3.53
x2 = 0.5 | 0.778 | 0.975 | 1.23 | 1.44 | 1.75 | 2.22 | 2.66 | 3.16 | 3.8
x2 = 0.6 | 0.825 | 1.05 | 1.32 | 1.57 | 1.89 | 2.39 | 2.86 | 3.4 | 4.12
x2 = 0.7 | 0.879 | 1.13 | 1.43 | 1.69 | 2.03 | 2.55 | 3.04 | 3.65 | 4.42
x2 = 0.8 | 0.948 | 1.22 | 1.53 | 1.83 | 2.18 | 2.72 | 3.25 | 3.87 | 4.75
x2 = 0.9 | 1.04 | 1.34 | 1.63 | 1.98 | 2.36 | 2.91 | 3.48 | 4.12 | 5.04

O=C(O)c1cc([N+](=O)[O-])ccc1O + CCCO + O
solubility (g/100 g solution)
Details | 278.15 K | 283.15 K | 288.15 K | 293.15 K | 298.15 K | 303.15 K | 308.15 K | 313.15 K | 318.15 K | 323.15 K
x2 = 0.03225 | 0.0803 | 0.104 | 0.134 | 0.171 | 0.216 | 0.26 | 0.316 | 0.38 | 0.458 | 0.542
x2 = 0.06974 | 0.189 | 0.227 | 0.294 | 0.366 | 0.45 | 0.559 | 0.678 | 0.817 | 1.01 | 1.24
x2 = 0.1139 | 0.45 | 0.55 | 0.689 | 0.87 | 1.08 | 1.3 | 1.55 | 1.79 | 2.07 | 2.41
x2 = 0.1666 | 0.839 | 1.02 | 1.3 | 1.63 | 2.02 | 2.42 | 2.82 | 3.28 | 3.77 | 4.3
x2 = 0.2307 | 1.52 | 1.91 | 2.38 | 2.94 | 3.59 | 4.22 | 4.85 | 5.61 | 6.41 | 7.29
x2 = 0.3103 | 2.34 | 2.82 | 3.45 | 4.11 | 4.94 | 5.73 | 6.68 | 7.75 | 8.82 | 10.2
x2 = 0.4117 | 3.55 | 4.17 | 4.92 | 5.66 | 6.64 | 7.67 | 8.85 | 9.98 | 11.2 | 12.6
x2 = 0.5454 | 4.75 | 5.34 | 6.09 | 7.02 | 8.12 | 9.33 | 10.6 | 12 | 13.4 | 15.1
x2 = 0.7297 | 5.59 | 6.57 | 7.78 | 8.73 | 9.96 | 11.3 | 12.4 | 13.8 | 15.2 | 16.8

— the CheMixHub drug solubility set
